ChEMBL document CHEMBL1154016, “An efficient synthesis and biological study of novel indolyl-1,3,4-oxadiazoles as potent anticancer agents” (Bioorg Med Chem Lett, 2009)

Tests used:
DU-145 = assay: Cytotoxicity against human DU145 cells by MTT assay; format: functional, cell-based
MCF7 [1] = assay: Selectivity ratio of IC50 for human MIAPaCa2 cells to IC50 for human MCF7 cells; format: functional
MCF7 [2] = assay: Cytotoxicity against human MCF7 cells by MTT assay; format: functional, cell-based
MIA PaCa-2 = assay: Cytotoxicity against human MIAPaCa2 cells by MTT assay; format: functional, cell-based
MDA-MB-231 = assay: Cytotoxicity against human MDA-MB-231 cells by MTT assay; format: functional, cell-based
PC-3 = assay: Cytotoxicity against human PC3 cells by MTT assay; format: functional, cell-based
LNCaP = assay: Cytotoxicity against human LNCAP cells by MTT assay; format: functional, cell-based

Row | SMILES | IC50 (DU-145) [µM] | Ratio IC50 (MCF7 [1]) | IC50 (MCF7 [2]) [µM] | IC50 (MIA PaCa-2) [µM] | IC50 (MDA-MB-231) [µM] | IC50 (PC-3) [µM] | IC50 (LNCaP) [µM]
1 | c1ccc(Cc2nnc(-c3c[nH]c4ccccc34)o2)cc1 | > 1000 | 24 | 39.2 | 934 | > 1000 | > 1000 | > 1000
2 | COc1ccc(-c2nnc(-c3c[nH]c4ccccc34)o2)cc1 | > 1000 |  | > 1000 | > 1000 | > 1000 | > 1000 | > 1000
3 | COc1ccc(-c2nnc(-c3c[nH]c4ccccc34)o2)cc1OC | > 1000 |  | 557 | > 1000 | > 1000 | > 1000 | > 1000
4 | COc1ccc(-c2nnc(-c3c[nH]c4ccccc34)o2)c(OC)c1OC | > 1000 |  | 121 | > 1000 | > 1000 | > 1000 | > 1000
5 | c1ccc2c(-c3nnc(-c4ccncc4)o3)c[nH]c2c1 | 20.4 |  | 1 | 1.6 | > 1000 | 4.1 | 10
6 | Clc1ccc(-c2nnc(-c3c[nH]c4ccccc34)o2)cc1 | 192 |  | 48.2 | 6460 | > 1000 | 41.6 | 583
7 | COc1cc(-c2nnc(-c3c[nH]c4ccccc34)o2)ccc1OCc1ccccc1 | > 1000 |  | > 1000 | > 1000 | > 1000 | > 1000 | > 1000
8 | COc1cc(-c2nnc(-c3c[nH]c4ccccc34)o2)ccc1O | > 1000 |  | > 1000 | > 1000 | > 1000 | > 1000 | > 1000
9 | c1cncc(-c2nnc(-c3c[nH]c4ccccc34)o2)c1 | 170 |  | 5.4 | 0.9 | > 1000 | 711 | 69.4
10 | COc1cc(-c2nnc(-c3cn(C)c4ccccc34)o2)ccc1OCc1ccccc1 | > 1000 |  | 35.2 | 1.4 | > 1000 | > 1000 | > 1000
11 | FC(F)(F)c1nnc(-c2c[nH]c3ccccc23)o1 | > 1000 |  | > 1000 | > 1000 | > 1000 | > 1000 | > 1000
12 | Cc1nnc(-c2c[nH]c3ccccc23)o1 | > 1000 |  | 198 | 145 | > 1000 | > 1000 | > 1000
13 | c1ccc(-c2nnc(-c3c[nH]c4ccccc34)o2)cc1 | > 1000 |  | 388 | > 1000 | > 1000 | > 1000 | > 1000
